The source of these data is patent US9999616B2 (ZENITH EPIGENETICS LTD., priority 2013, dated 2018).

Assay [1] relates to c-myc in Human AML MV4-11 cells. The assay can be described thus: Inhibition of cMYC expression (mRNA, real-time PCR) in MV4-11 cells. The class given is cell-based. As to conditions: 3 h treatment, cMYC mRNA by real-time PCR. A digest of the protocol:
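MV4-11 cells in IMDM with 10% FBS were treated with increasing compound concentrations (DMSO 0.1%) for 3 h at 37 °C, in triplicate. Isolated mRNA was quantified by one-step TaqMan RT-qPCR, cMYC Ct normalized to cyclophilin, and fold expression given relative to DMSO control.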

In assay [2] the test system is hIL-6 mRNA. Briefly: Inhibition of hIL-6 mRNA transcription in LPS-stimulated U937 macrophages. The assay is classed as cell-based, Human. As to conditions: Homo sapiens, U-937, PMA-differentiated U937 cells, 1 h pretreatment, LPS 3 h, read-out: IL-6 activity. The essentials:
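PMA-differentiated U937 macrophages (60 ng/mL PMA, 3 days) pretreated 1 h with compound in 0.1% DMSO, then stimulated with 1 ug/mL E. coli LPS for 3 h at 37° C. IL-6 mRNA quantified by one-step TaqMan qRT-PCR, normalized to cyclophilin; fold expression relative to control, triplicate wells.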

The subject of assay [3] is hApoA-1 mRNA. Briefly: Up-regulation of hApoA-1 mRNA transcription in Huh7 cells. As to conditions: Homo sapiens, Huh-7, EC170 of hApoA-1 mRNA up-regulation, 48 h, read-out: ApoA-1 activity. The class given is cell-based. The protocol: Huh7 cells (2.5×10^5 per well) were plated in a 96-well plate using 100 μL DMEM per well, (Gibco DMEM supplemented with penicillin/streptomycin and 10% FBS), 72 h before the addition of the compound. The cells are treated with increasing concentrations of the compound or DMSO (0.1%), and incubated at 37° C., 5% CO2 for 48 h. Spent media was removed from the Huh-7 cells and placed on ice for immediate use with the “LDH cytotoxicity assay Kit II” from Abcam. The cells remaining in the plate were rinsed with 100 μL PBS. Cells were harvested using the mRNA Catcher PLUS kit according to manufacturer's instructions. The eluted mRNA was then used in a one-step quantitative real-time PCR reaction, using components of the RNA UltraSense™ One-Step Kit (Life Technologies) together with Applied Biosystems TaqMan® primer-probes for hApoA-1 and Cyclophilin. Real-time PCR plates were run on a ViiA™7 real time PCR machine (Applied Biosystems), data was analyzed, normalizing the Ct values for hApoA-1 to an internal control, prior to determining the fold induction of each unknown sample, relative to the control.

The subject of assay [4] is Bcl2 and c-myc gene expression. Briefly: Evaluation of target engagement: Bcl2 and c-myc gene expression in MV4-11 and MM1.s xenograft tumors. The assay is classed as in vivo, mouse. As to conditions: oral dose, tumors harvested 3, 6, 12, 24 hrs post dose for Bcl2 and c-myc gene expression as PD biomarkers. The protocol:
MV4-11 and MM1.s cells (ATCC) are grown under standard cell culture conditions and (NCr) nu/nu fisol strain of female mice age 6-7 weeks are injected with 5×10^6 cells/animal in 100 μL PBS+100 μL Matrigel in the lower left abdominal flank. By approximately day 28 after MV4-11 and MM1.s cells injection, mice are randomized based on tumor volume (L×W×H)/2) of average ˜500 mm^3. Mice are dosed orally with compound in EA006 formulation at 10 mL/kg body weight dose volume and tumors harvested 3, 6, 12, 24 hrs post dose for Bcl2 and c-myc gene expression analysis as PD biomarkers.

Assay [5] is described as follows: In vivo efficacy in rat collagen-induced arthritis. Conditions: female Lewis rats, dosed Day 11 to Day 17. The protocol: Rat collagen-induced arthritis is an experimental model of polyarthritis that has been widely used for preclinical testing of numerous anti-arthritic agents. Following administration of collagen, this model establishes a measurable polyarticular inflammation, marked cartilage destruction in association with pannus formation and mild to moderate bone resorption and periosteal bone proliferation. In this model, collagen was administered to female Lewis strain of rats on Day 1 and 7 of study and dosed with compounds from Day 11 to Day 17. Test compounds were administered at 25 mg/kg to 120 mg/kg b.i.d and 7.5 mg/kg to 30 mg/kg q.d dose to assess the potential to inhibit the inflammation (including paw swelling), cartilage destruction and bone resorption in arthritic rats, using a model in which the treatment is administered after the disease has been established.

Assay [6] in a line: In vivo efficacy in experimental autoimmune encephalomyelitis (EAE) model of MS. As to conditions: female C57Bl/6 mice, 50 to 125 mg/kg b.i.d. Also on record: species or system mouse. The source says: Experimental autoimmune encephalomyelitis (EAE) is a T-cell-mediated autoimmune disease of the CNS which shares many clinical and histopathological features with human multiple sclerosis (MS). EAE is the most commonly used animal model of MS. […] Cytokines IL-23, IL-6 and IL-17, which are either critical for Th1 and Th17 differentiation or produced by these T cells, play a critical and non-redundant role in EAE development. Therefore, drugs targeting production of these cytokines are likely to have therapeutic potential in treatment of MS.
Compounds of Formula I were administered at 50 to 125 mg/kg b.i.d. from time of immunization to EAE mice to assess anti-inflammatory activity. In this model, EAE is induced by MOG35-55/CFA immunization and pertussis toxin injection in female C57Bl/6 mice.

Assay [7] has as its system TH1, Th2 and Th17 cytokines. Briefly: Ex vivo effects on T cell function from splenocyte and lymphocyte cultures stimulated with external MOG. The assay is classed as in vivo, mouse. Conditions: MOG stimulation 72 hours, mice treated 11 days b.i.d. As for the experimental part: Mice were immunized with MOG/CFA and simultaneously treated with the compound for 11 days on a b.i.d regimen. Inguinal Lymph node and spleen were harvested, cultures were set up for lymphocytes and splenocytes and stimulated with external antigen (MOG) for 72 hours. Supernatants from these cultures were analyzed for TH1, Th2 and Th17 cytokines using a Cytometric Bead Array assay.

SMILES strings stand for the structures.

Take `Cc1noc(C)c1-c1cc(-c2c(C)noc2C)c2nc[nH]c2c1` [Example Compound 1, 4,4′-(1H-benzo[d]imidazole-4,6-diyl)bis(3,5-dimethylisoxazole)]: the values for the IC50 in assay [1] and in assay [2] were 300 to 3000 nM and not above 300 nM, respectively. Besides, the EC170 in assay [3] was in the range of 0.3 to 3 µM. Moreover, the In vivo activity result in assay [4], in assay [5], in assay [6] and in assay [7] was “Active” in each case.
With `Cc1nc2c(-c3c(C)noc3C)cc(-c3c(C)noc3C)cc2[nH]1` [Example Compound 6, 4,4′-(2-methyl-1H-benzo[d]imidazole-4,6-diyl)bis(3,5-dimethylisoxazole)], the IC50 in assay [1] and in assay [2] was 300 to 3000 nM in each case. Also, the In vivo activity entry in assay [6] and in assay [7] was “Active” in each case.
For `Cc1nc2c(-c3cccnc3C)cc(-c3c(C)noc3C)cc2[nH]1` [Example Compound 41, 3,5-dimethyl-4-(2-methyl-4-(2-methylpyridin-3-yl)-1H-benzo[d]imidazol-6-yl)isoxazole], the IC50 in assay [1] was 300 to 3000 nM; in assay [2] it was not above 300 nM. Further, in assay [3], the EC170 is not above 0.3 µM. The In vivo activity entry in assay [5] is listed as “Active”.
With `Cc1nc2c(-c3c(C)nn(C)c3C)cc(-c3c(C)noc3C)cc2[nH]1` [Example Compound 49, 3,5-dimethyl-4-(2-methyl-4-(1,3,5-trimethyl-1H-pyrazol-4-yl)-1H-benzo[d]imidazol-6-yl)isoxazole], the IC50 in assay [1] and in assay [2] was not above 300 nM throughout. Besides, the EC170 in assay [3] is not above 0.3 µM.
